Data: patent publication US7541367B2, “3-benzoimidazolyl-pyrazolopyridines useful in treating kinase disorders” (Janssen Pharmaceutica, N.V., priority 2005, dated 2009)

Experiments:
[1] = molecular target: T1, CDK1 (Homo sapiens, UniProt P06493); assay: CDK-1 kinase screening assay (33P-ATP FlashPlate); type: biochemical; conditions: human CDK1 with cyclin B; 10 μM ATP; 1 hr at 30° C
T1 construct: purchased New England Biolabs, Beverly, Mass; 6020; host or cells: insect cells

[2] = molecular target: T2, VEGF-R2 (Rattus norvegicus, UniProt O08775); assay: VEGF-R2 kinase screening assay (33P-ATP FlashPlate); type: biochemical; conditions: rat VEGF-R2 kinase domain; 10 μM ATP; 1 hr at 30° C;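 also: Read-out is ³³P incorporation from ³³P-γ-ATP into biotinylated peptide substrate captured on streptavidin FlashPlate, counted by scintillation, 1% DMSO final, inhibition scaled between per-plate maximum and minimum signals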
T2 construct: polyhistidine (N)

[3] = molecular target: T3, HER2 (Homo sapiens, UniProt P04626); assay: HER2 kinase screening assay (33P-ATP FlashPlate); type: biochemical; conditions: GST-HIS6 HER-2 aa 679 to 1255; 10 μM ATP; 1 hr at 30° C;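 also: Biotin-poly(GT) 4:1 peptide captured on streptavidin FlashPlate, 33P transfer from γ-ATP read by scintillation counting, lower incorporation means inhibition, 1% DMSO final, 100 µL reaction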
T3 construct: GST (Glutathione-S-Transferase) (N); HIS6 (N); thrombin cleavage site (N); purchased Proqinase, Freiburg, Germany

[4] = molecular target: T4, Aurora-A (Mus musculus, UniProt P97477); assay: Aurora-A kinase screening assay (33P-ATP FlashPlate); type: biochemical; conditions: 10 μM ATP, 1 hr at 30° C;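 also: His-tagged mouse Aurora-A phosphorylating a biotinylated peptide captured on streptavidin plates, read as 33P uptake by scintillation counting, 1% DMSO, inhibition scaled between per-plate maximum and minimum signals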
T4 construct: polyhistidine (N)
T4 sequence (P97477 1-395): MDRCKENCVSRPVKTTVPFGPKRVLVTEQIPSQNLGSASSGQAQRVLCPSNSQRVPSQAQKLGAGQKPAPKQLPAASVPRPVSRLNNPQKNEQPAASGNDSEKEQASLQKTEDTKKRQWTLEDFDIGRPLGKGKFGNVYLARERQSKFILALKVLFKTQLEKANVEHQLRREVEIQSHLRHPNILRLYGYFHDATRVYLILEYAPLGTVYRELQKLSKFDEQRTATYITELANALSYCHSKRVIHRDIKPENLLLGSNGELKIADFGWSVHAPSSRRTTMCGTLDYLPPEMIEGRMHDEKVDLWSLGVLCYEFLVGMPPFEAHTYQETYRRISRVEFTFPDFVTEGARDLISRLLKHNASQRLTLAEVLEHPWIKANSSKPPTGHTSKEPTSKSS

[5] = molecular target: T5, c-Src kinase (Homo sapiens, UniProt P12931); assay: c-Src Kinase Assay; type: biochemical; conditions: 5 μM ATP
T5 construct: purchased Upstate Biotechnology, Lake Placid, N.Y
Description: A mixture of a 10× kinase buffer (80 mM MOPS at pH 7.0, 2 mM EDTA and 100 mM Magnesium Chloride), ATP (5 μM final from a 10 mM stock), a Cdc2 peptide […] (100 μM final from a 2.5 mM stock), γ-^33P ATP (10 μCi/μL stock) and water (for a total of 20 μL/well) was added to each well of a Streptavidin Flashplate.
Test compound in 100% DMSO (0.5 μL) was added to the appropriate wells. Diluted c-Src kinase (human) (Accession Number SWISS-PROT P12931) (Upstate Biotechnology, Lake Placid, N.Y.) (diluted in a buffer consisting of 20 mM MOPS at pH 7.0, 1 mM EDTA, β-mercaptoethanol (0.1%), Brij-35 (0.01%), glycerol (5%), and 1 mg/mL bovine serum albumin) (2.5 μL) was added to the wells to initiate the reactions. The reaction plates were incubated at 30° C. for 40 min. The reaction was terminated by the addition of a 3% phosphoric acid solution (5 μL). The reaction product (10 μL) was spotted onto a P30 filtermat and washed for 5 minutes in phosphoric acid (75 mM). The wash sequence was repeated two more times, followed with one final wash in methanol. The plates were then dried, sealed and read on the TopCount scintillation counter after adding 30 μL scintillation fluid.
A maximum and minimum signal for the assay was determined on each plate. The percent inhibition of a test compound was calculated according to the formula: […]
For a series of test concentrations, the IC50 was derived by graphing percent inhibition against the log of the concentrations tested for a given compound with results shown in Table 2
For compounds with multiple values, each value represents a separate assay result.

[6] = tested on: HeLa cervical adenocarcinoma; assay: Cell Proliferation Inhibition Assay (14C-thymidine incorporation), HeLa; type: cell-based; conditions: Homo sapiens, HeLa, HeLa cells;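 also: test compound in DMSO added to cells seeded in scintillating 96-well plates, DMSO-only wells as control, uptake of methyl 14C-thymidine into new DNA counted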
[7] = tested on: A375 malignant melanoma; assay: Cell Proliferation Inhibition Assay (14C-thymidine incorporation), A375; type: cell-based; conditions: Homo sapiens, A-375, A375 cells;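 also: proliferation measured by radiolabelled thymidine uptake into new DNA, counted in scintillating 96-well plates, compound-treated wells compared with DMSO-only control wells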
[8] = tested on: HCT-116 colon carcinoma; assay: Cell Proliferation Inhibition Assay (14C-thymidine incorporation), HCT-116; type: cell-based; conditions: Homo sapiens, HCT-116, HCT-116 cells;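 also: proliferation measured as methyl 14C-thymidine uptake into new DNA, counted in 96-well scintillating microplates, compared with DMSO-only control wells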
[9] = molecular target: T6, RET (Homo sapiens, UniProt P07949); assay: RET kinase screening assay (33P-ATP FlashPlate); type: biochemical; conditions: human RET kinase domain; 10 μM ATP; 1 hr at 30° C;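 also: biotinylated peptide substrate captured on streptavidin FlashPlate, 33P phosphate transfer read by scintillation counting, 1% DMSO, lower incorporation means inhibition, percent relative to per-plate maximum and minimum signals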
T6 construct: polyhistidine (N)
T6 sequence (P07949 658-1114 limits assumed): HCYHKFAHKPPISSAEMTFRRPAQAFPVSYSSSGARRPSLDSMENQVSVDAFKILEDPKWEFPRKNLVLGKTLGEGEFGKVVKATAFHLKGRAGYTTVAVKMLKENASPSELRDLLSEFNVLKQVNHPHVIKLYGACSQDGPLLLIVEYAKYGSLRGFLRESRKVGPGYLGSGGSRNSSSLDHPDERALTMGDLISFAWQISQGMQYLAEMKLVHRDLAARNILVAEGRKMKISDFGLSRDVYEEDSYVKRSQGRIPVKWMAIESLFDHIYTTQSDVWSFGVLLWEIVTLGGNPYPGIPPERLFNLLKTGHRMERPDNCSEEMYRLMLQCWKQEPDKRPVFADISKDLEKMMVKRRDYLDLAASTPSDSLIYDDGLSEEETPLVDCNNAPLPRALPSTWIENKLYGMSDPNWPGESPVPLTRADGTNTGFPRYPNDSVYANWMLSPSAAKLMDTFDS

T3 sequence (P04626 679-1255): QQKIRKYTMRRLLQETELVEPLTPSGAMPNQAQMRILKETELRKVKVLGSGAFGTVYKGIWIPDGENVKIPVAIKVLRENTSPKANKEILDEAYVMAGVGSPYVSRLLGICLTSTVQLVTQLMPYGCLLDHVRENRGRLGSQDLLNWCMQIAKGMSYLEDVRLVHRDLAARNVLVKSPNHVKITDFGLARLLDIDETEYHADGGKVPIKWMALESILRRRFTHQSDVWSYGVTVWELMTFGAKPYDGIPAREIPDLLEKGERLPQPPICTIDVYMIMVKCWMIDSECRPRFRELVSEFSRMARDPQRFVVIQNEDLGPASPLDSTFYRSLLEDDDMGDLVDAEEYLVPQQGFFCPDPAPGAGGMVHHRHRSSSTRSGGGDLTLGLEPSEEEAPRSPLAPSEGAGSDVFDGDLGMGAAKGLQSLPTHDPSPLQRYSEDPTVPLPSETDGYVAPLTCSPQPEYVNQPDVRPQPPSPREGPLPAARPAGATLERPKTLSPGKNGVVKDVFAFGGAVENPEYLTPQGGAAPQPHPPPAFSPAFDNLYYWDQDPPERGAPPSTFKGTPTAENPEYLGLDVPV
T1 sequence (P06493 whole entry): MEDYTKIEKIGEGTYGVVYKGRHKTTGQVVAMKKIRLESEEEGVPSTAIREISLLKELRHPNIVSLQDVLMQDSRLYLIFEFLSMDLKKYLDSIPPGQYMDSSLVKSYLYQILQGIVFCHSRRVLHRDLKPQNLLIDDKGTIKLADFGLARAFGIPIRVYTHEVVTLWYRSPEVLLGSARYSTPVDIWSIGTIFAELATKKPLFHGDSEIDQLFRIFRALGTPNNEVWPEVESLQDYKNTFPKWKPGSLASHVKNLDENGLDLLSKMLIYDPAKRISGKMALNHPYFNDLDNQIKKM
T1 sequence (P14635 whole entry partner): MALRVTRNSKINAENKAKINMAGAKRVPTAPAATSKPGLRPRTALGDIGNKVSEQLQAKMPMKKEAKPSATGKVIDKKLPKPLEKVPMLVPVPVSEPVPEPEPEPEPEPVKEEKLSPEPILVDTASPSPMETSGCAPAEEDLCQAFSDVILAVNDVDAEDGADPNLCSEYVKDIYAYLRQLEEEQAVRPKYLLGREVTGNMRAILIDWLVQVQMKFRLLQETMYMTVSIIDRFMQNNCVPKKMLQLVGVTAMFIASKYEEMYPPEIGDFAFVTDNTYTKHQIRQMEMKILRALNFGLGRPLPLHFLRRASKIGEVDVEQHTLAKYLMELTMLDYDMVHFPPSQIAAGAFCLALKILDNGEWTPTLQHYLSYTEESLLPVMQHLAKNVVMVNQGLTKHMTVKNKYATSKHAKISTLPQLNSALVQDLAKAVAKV
T2 sequence (O08775 786-1343): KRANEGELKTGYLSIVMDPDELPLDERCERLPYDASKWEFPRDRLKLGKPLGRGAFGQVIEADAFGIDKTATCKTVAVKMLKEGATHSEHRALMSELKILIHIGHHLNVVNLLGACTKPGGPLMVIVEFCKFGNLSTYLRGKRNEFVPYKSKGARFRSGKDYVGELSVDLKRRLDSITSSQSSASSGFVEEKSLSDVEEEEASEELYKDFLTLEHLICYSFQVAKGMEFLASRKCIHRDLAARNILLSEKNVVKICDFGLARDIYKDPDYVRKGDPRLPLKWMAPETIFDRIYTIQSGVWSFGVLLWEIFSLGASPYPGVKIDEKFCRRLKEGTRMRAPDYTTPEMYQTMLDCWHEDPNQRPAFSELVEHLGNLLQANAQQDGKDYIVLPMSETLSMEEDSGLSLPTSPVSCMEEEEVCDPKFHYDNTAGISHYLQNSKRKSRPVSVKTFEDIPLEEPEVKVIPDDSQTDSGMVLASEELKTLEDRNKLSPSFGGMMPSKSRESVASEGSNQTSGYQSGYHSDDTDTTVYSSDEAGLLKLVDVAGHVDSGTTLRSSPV
T5 sequence (P12931 whole entry): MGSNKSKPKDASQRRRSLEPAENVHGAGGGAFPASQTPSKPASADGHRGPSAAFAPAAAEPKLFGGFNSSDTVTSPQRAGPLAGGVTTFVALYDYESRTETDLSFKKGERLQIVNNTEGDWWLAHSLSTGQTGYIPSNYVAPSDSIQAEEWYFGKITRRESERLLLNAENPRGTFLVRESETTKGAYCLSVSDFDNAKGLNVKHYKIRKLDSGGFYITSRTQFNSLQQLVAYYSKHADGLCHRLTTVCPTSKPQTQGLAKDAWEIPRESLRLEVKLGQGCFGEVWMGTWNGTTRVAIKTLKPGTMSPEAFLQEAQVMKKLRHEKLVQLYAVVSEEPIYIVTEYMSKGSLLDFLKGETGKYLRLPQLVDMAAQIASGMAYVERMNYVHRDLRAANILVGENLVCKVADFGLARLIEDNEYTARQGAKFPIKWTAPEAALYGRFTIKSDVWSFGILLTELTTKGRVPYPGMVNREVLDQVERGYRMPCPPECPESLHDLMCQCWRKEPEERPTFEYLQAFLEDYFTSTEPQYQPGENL

## COCc1cccc2[nH]c(-c3n[nH]c4ncc(-c5cc[nH]c5)cc34)nc12 [Cpd 40, 3-(4-methoxymethyl-1H-benzoimidazol-2-yl)-5-(1H-pyrrol-3-yl)-1H-pyrazolo[3,4-b]pyridine]
[1]
  IC50: 1190 nM
[2]
  IC50: 462 nM
[3]
  IC50: > 100000 nM
[4]
  IC50: ~1000 nM
[5]
  IC50: 327 nM
[6]
  IC50: 1220 nM
[7]
  IC50: 73.7 nM
[8]
  IC50: 56.5 nM

## COCc1cccc2[nH]c(-c3n[nH]c4ncc(-c5cncc(C=O)c5)cc34)nc12 [Cpd 41, 5-[3-(4-methoxymethyl-1H-benzoimidazol-2-yl)-1H-pyrazolo[3,4-b]pyridin-5-yl]-pyridine-3-carbaldehyde]
[1]
  IC50: 231 nM
[2]
  IC50: > 1000 nM
[3]
  IC50: ~100000 nM
[4]
  IC50: 248 nM
[9]
  IC50: > 100000 nM
[5]
  IC50: 92.5 nM
[6]
  IC50: 1220 nM
[7]
  IC50: 265 nM
[8]
  IC50: 161 nM

## CCNCc1cncc(-c2cnc3[nH]nc(-c4nc5c(COC)cccc5[nH]4)c3c2)c1 [Cpd 42, ethyl-{5-[3-(4-methoxymethyl-1H-benzoimidazol-2-yl)-1H-pyrazolo[3,4-b]pyridin-5-yl]-pyridin-3-ylmethyl}-amine]
[1]
  IC50: 9.8 nM
[2]
  IC50: ~1000 nM
[3]
  IC50: > 10000 nM
[4]
  IC50: 4460 nM
[9]
  IC50: 7630 nM
[5]
  IC50: 358 nM
[6]
  IC50: 298 nM
[7]
  IC50: 239 nM
[8]
  IC50: 280 nM

## COCc1cccc2[nH]c(-c3n[nH]c4ncc(-c5cncc(CN)c5)cc34)nc12 [Cpd 73, C-{5-[3-(4-methoxymethyl-1H-benzoimidazol-2-yl)-1H-pyrazolo[3,4-b]pyridin-5-yl]-pyridin-3-yl}-methylamine]
[1]
  IC50: 42.7 nM
[2]
  IC50: > 10000 nM
[3]
  IC50: > 10000 nM
[4]
  IC50: 4750 nM
[9]
  IC50: > 10000 nM
[5]
  IC50: 823 nM
[6]
  IC50: 2550 nM
[7]
  IC50: 678 nM
[8]
  IC50: 412 nM

## COCc1cccc2[nH]c(-c3n[nH]c4ncc(-c5cncc(CNCCN6CCOCC6)c5)cc34)nc12 [Cpd 74, {5-[3-(4-methoxymethyl-1H-benzoimidazol-2-yl)-1H-pyrazolo[3,4-b]pyridin-5-yl]-pyridin-3-ylmethyl}-(2-morpholin-4-yl-ethyl)-amine]
[1]
  IC50: 551 nM
[2]
  IC50: 284 nM
[3]
  IC50: ~100000 nM
[4]
  IC50: 6820 nM
[9]
  IC50: ~100000 nM
[5]
  IC50: 954 nM
[6]
  IC50: 4780 nM
[7]
  IC50: 459 nM
[8]
  IC50: 386 nM

## COCCNCc1cncc(-c2cnc3[nH]nc(-c4nc5c(COC)cccc5[nH]4)c3c2)c1 [Cpd 75, (2-methoxy-ethyl)-{5-[3-(4-methoxymethyl-1H-benzoimidazol-2-yl)-1H-pyrazolo[3,4-b]pyridin-5-yl]-pyridin-3-ylmethyl}-amine]
[1]
  IC50: 63.6 nM
[2]
  IC50: 1640 nM
[3]
  IC50: > 10000 nM
[4]
  IC50: 4500 nM
[9]
  IC50: > 10000 nM
[5]
  IC50: 378 nM
[6]
  IC50: 594 nM
[7]
  IC50: 205 nM
[8]
  IC50: 163 nM

## COCc1cccc2[nH]c(-c3n[nH]c4ncc(-c5cncc(CNCCN(C)C)c5)cc34)nc12 [Cpd 76, N′-{5-[3-(4-methoxymethyl-1H-benzoimidazol-2-yl)-1H-pyrazolo[3,4-b]pyridin-5-yl]-pyridin-3-ylmethyl}-N,N-dimethyl-ethane-1,2-diamine]
[1]
  IC50: 595 nM
[2]
  IC50: 1370 nM
[3]
  IC50: > 100000 nM
[4]
  IC50: 6600 nM
[9]
  IC50: > 100000 nM
[5]
  IC50: 1010 nM
[6]
  IC50: 10100 nM
[7]
  IC50: 178 nM
[8]
  IC50: 255 nM
